From paper PMC12693416, “From Lipid Regulation to Neuroprotection: Multitarget (Benzo)thiazine Derivatives as Promising Leads” (Molecules, 2025)
Like-named read-outs stand apart in the source and are kept apart here.

Legend:
[1] = tested on: plasma of hyperlipidaemic mice; assay: Total antioxidant capacity (TAC) of plasma in hyperlipidaemic mice; type: in vivo; conditions: Mus musculus, ip, 24 h, i.p. 84 μmol/kg, read-out: Total Antioxidant Capacity (TAC) Increase (%)
[2] = tested on: carrageenan-induced mouse paw edema; assay: Carrageenan-induced mouse paw edema; type: in vivo, C57BL/6 mice; conditions: ip, 3.5 h, i.p. 0.30 mmol/kg, female C57BL/6, 3.5 h after carrageenan, read-out: % Edema (decrease of carrageenan-induced paw edema vs control)
Method: For the in vivo anti-inflammatory activity, C57BL/6 mice were injected with 0.025 mL carrageenan (2% w/v solution in saline) i.d. into the right hind paw, the left paw serving as control. The test compounds dissolved in saline (300 μmol/kg) were given i.p. right after the carrageenan injection, and 3.5 h later the produced edema was estimated as paw weight increase. Results are expressed as percentage of reduction in paw-edema and are the mean of 6 animals (per compound).

[3] = tested on: mouse liver microsomal lipid peroxidation; assay: Inhibition of mouse liver microsomal lipid peroxidation (LP); conditions: read-out: LP IC50 Value; 45 min incubation
hyperlipidaemic mice = assay: Tyloxapol (Triton WR 1339)-induced hyperlipidemia, plasma lipid parameters; type: in vivo; conditions: Mus musculus, ip, 24 h, i.p. 84 μmol/kg, 24 h; for change in vivo at 84 µmol/kg: read-out: % HDL Increase
Method: An aqueous solution of Triton WR 1339 was given i.p. to mice (400 mg/kg of body weight) and one hour later the test compounds (84 μmol/kg of body weight), dissolved in saline or saline only, were administered i.p. After 24 h, blood was taken from the aorta/heart and used for the determination of plasma total cholesterol (TC), triglyceride (TG) levels, and high-density lipoprotein (HDL) levels, using commercially available kits (Biosis Cholesterol Enzymatic/PAP, Biosis Triglycerides GPO/PAP, and Biosis HDL Phosphovolframic, Biosis, Athens Greece). Levels of plasma lipids were determined in duplicate while values presented are the mean from 8 animals (per compound). The levels of low-density lipoprotein (LDL) are calculated according to the equation: LDL (mg/dL) = 3/4 * (TC-HDL).

[4] = Iron chelation (ferrozine assay); conditions: for % of Fe(II) Chelation (at 100 μM): 100 μM compound, Fe2+ 20 μM
Method: […] The reaction was initiated with the addition of a 100 μM aqueous ferrozine solution, which chelates iron ions, resulting in an increased maximum absorbance at 562 nm. After incubation at 37 °C for 10 min, the mixture’s absorbance is measured at 562/700 nm. Each value is expressed as the mean of 3 tests per sample [46].

[5] = molecular target: soybean lipoxygenase (LOX-3); assay: Soybean lipoxygenase (LOX-3) inhibition; type: biochemical; conditions: after 5 min of incubation; sodium linoleate 100 μM, pH 9.0
Method: Lipoxygenase (LOX) inhibitory activity was determined using soybean lipoxygenase (250 U/mL) and sodium linoleate (100 μM) as substrate, in Tris–HCl buffer pH 9.0.

[6] = molecular target: T1, acetylcholinesterase from eel (Electrophorus electricus, UniProt O42275); assay: Acetylcholinesterase (AChE) inhibition (Ellman); type: biochemical; conditions: for inhibition at 300 µM: read-out: AChE Inhibition (%), 300 μM compound
T1 construct: purchased Sigma
Method: (0.31 mM) in phosphate buffer with pH = 7. The incubation mixture is monitored for 7 min at 37 °C.

[7] = Radical scavenging of DPPH; conditions: DPPH 200 μM, 30 min incubation
Method: Compounds, dissolved in absolute methanol, at concentrations of 25–400 μM, were added to an equal volume of a methanolic solution of DPPH (final concentration 200 μM) at room temperature (22 ± 2 °C).

AChE = conditions: read-out: IC50 against AChE; cited from earlier work
[8] = LDL calculated as 3/4*(TC-HDL), read-out: % LDL Decrease
[9] = plasma, vs tyloxapol control, read-out: % Total Cholesterol (TC) Reduction
[10] = plasma, vs tyloxapol control, read-out: % Triglycerides (TG) Reduction

T1 sequence (O42275 24-633): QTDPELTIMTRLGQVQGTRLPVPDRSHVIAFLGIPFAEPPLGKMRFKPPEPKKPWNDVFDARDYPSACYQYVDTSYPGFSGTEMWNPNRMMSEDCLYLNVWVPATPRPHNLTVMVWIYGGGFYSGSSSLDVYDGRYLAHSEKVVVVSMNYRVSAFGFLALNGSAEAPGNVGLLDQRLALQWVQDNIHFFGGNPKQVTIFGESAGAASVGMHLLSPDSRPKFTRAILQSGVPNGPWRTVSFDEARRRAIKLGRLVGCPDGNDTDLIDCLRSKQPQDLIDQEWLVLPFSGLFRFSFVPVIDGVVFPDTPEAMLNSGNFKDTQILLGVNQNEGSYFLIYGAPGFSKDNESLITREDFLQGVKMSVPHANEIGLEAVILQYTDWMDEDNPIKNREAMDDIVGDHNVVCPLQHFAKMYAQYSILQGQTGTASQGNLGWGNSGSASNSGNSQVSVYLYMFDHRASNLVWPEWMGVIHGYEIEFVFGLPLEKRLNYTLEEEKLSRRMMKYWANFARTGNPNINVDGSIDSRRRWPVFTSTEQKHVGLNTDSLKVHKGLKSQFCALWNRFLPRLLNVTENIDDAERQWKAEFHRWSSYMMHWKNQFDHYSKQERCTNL

SMILES | change in vivo at 84 µmol/kg [1] | inhibition in vivo at 300 µmol/kg [2] | IC50 [3] | change in vivo at 84 µmol/kg (hyperlipidaemic mice; plasma, vs tyloxapol control) | inhibition in vivo at 84 µmol/kg (hyperlipidaemic mice; [8]) | inhibition in vivo at 84 µmol/kg (hyperlipidaemic mice; [9]) | inhibition in vivo at 84 µmol/kg (hyperlipidaemic mice; [10]) | % of Fe(II) Chelation (at 100 μM) [4] | IC50 [5] | AChE Inhibition (%) ([6]; 300 μM compound) | IC50 [7] | inhibition at 300 µM [6] | % of Fe(II) Chelation at 10 μM ([4]; 10 μM compound) | IC50 (AChE)
c1ccc(-c2ccc(C3CNc4ccccc4S3)cc2)cc1 (stereo not drawn) [Compound 11, 2-([1,1′-Biphenyl]-4-yl)-3,4-dihydro-2H-benzo[b][1,4]thiazine] | > 200% | 40% | 30 µM | 101% | 48% | 23% | 59% | 10% | 134 µM | inactivity | > 400 µM | – | – | –
COc1ccc(/C=C/C(=O)N2CC(c3ccc(-c4ccccc4)cc3)Sc3ccccc32)cc1OC (stereo not drawn) [Compound 12, (E)-1-(2-([1,1′-Biphenyl]-4-yl)-2,3-dihydro-4H-benzo[b][1,4]thiazin-4-yl)-3-(3,4-dimethoxyphenyl)prop-2-en-1-one] | 203% | 43% | > 1000 µM | 63% | 59% | 27% | 29% | 17% | 74 µM | – | > 400 µM | 17% | – | –
O=C(c1cc(O)c(O)c(O)c1)N1CC(c2ccc(-c3ccccc3)cc2)Sc2ccccc21 (stereo not drawn) [Compound 13, (2-([1,1′-Biphenyl]-4-yl)-2,3-dihydro-4H-benzo[b][1,4]thiazin-4-yl)(3,4,5-trihydroxyphenyl)methanone] | 60% | ≤ 60% | 24 µM | 25% | 62% | 47% | 53% | 91% | 37 µM | – | 36 µM | ~45% | 12% | –
COc1cc(C(=O)N2CC(c3ccc(-c4ccccc4)cc3)Sc3ccccc32)cc(OC)c1OC (stereo not drawn) [Compound 14, (2-([1,1′-Biphenyl]-4-yl)-2,3-dihydro-4H-benzo[b][1,4]thiazin-4-yl)(3,4,5-trimethoxyphenyl)methanone] | 144% | 38% | > 1000 µM | 13% | 73% | 51% | 50% | 6% | 71 µM | – | > 400 µM | ~45% | – | –
CC(C)(C)c1cc(C(=O)N2CC(c3ccc(-c4ccccc4)cc3)Sc3ccccc32)cc(C(C)(C)C)c1O (stereo not drawn) [Compound 15, (2-([1,1′-Biphenyl]-4-yl)-2,3-dihydro-4H-benzo[b][1,4]thiazin-4-yl)(3,5-ditertbutyl-4-hydroxyphenyl)methanone] | 131% | 31% | > 500 µM | 79% | 74% | 55% | 35% | 8% | 83 µM | – | > 400 µM | 23% | – | –
CC(C)Cc1ccc(C(C)C(=O)N2CC(c3ccc(-c4ccccc4)cc3)Sc3ccccc32)cc1 (stereo not drawn) [Compound 17, 1-(2-([1,1′-Biphenyl]-4-yl)-2,3-dihydro-4H-benzo[b][1,4]thiazin-4-yl)-2-(4-isobutylphenyl)propan-1-one] | 139% | 39% | > 1000 µM | 43% | 68% | 45% | 58% | 29% | 104 µM | – | > 400 µM | 13% | – | –
O=C(/C=C/c1ccc(O)c(O)c1)O[C@@H]1C[C@](O)(C(=O)O)C[C@@H](O)[C@H]1O [chlorogenic acid] | – | – | – | – | – | – | – | – | – | – | – | – | – | ~277 µM
COc1cc(C(=O)O)cc(OC)c1O [syringic acid] | – | – | – | – | – | – | – | – | – | – | – | – | – | ~149 µM
